The text below walks through data of PubChem BioAssay (NCI).

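Test compounds were applied to cells in 96-well plates for 48 hours at 5 doses. The concentration for 50% growth inhibition is given as GI50. TGI: total growth inhibition.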

Holding throughout (experiment): growth of human tumour cells (NCI), 48 h
In test [1] the test system is NCI-H226 lung.
Test [2] has as its system MCF7 breast.
Test [3] has as its system U251 CNS.
Test [4] relates to KM12 colon.
For test [5], the system named is TK-10 renal.
Test [6] relates to SF-268 CNS.
For test [7], the system named is K-562 leukemia.
Test [8] concerns CAKI-1 renal.
The test system of test [9] is HT29 colon.
Test [10] relates to UACC-62 melanoma.

For the compound `NC1=CC(=O)C(=O)c2ccccc21`, the GI50 in [1] was 18.8 µM; in test [2] it was 13.2 µM; in [3] it was 19.3 µM; in [4], 18.2 µM; in [5], 16.7 µM; in test [6], 18.8 µM. For the same compound, the GI50 in [7] is 20.6 µM; in test [8], 19.7 µM; in test [9], 31.9 µM; in [10], 3.33 µM. The TGI was 42.1 µM in test [1]; 29.8 µM in [2]; 46.4 µM in test [3]; 53.4 µM in test [4]; 47.5 µM in [5]; 62.3 µM in [6]. Besides, the TGI was more than 100 µM in test [7], 53.3 µM in test [8], 94.3 µM in [9] and 15.7 µM in [10].

Turning to `COc1ccc(-c2cncn2-c2ccc(-c3nc4cc(OC)c(OC)c(OC)c4s3)cc2)cc1N`, the GI50 in test [1] was 6.7 µM; in [2], 4.07 µM; in [3] it was 6 µM; in test [4], 3.8 µM; in test [5], 4.16 µM; in [6] it was 47 µM. The GI50 was 3.38 µM in test [7], 4.82 µM in [8], 3.87 µM in [9] and 9.04 µM in test [10]. Besides, the TGI in [1], in [2], in test [3], in [4], in test [5] and in test [6] was more than 100 µM in each case. For the same compound, the TGI in [7], in test [8], in test [9] and in test [10] was more than 100 µM in each case.

As for `COC(=O)C[C@@H]1CC=CC(=O)/C1=C(O)/C=C/c1ccccc1`, the GI50 in test [1] is 2.05 µM; in test [2], 0.374 µM; in [3] it was 0.354 µM; in test [4], 0.233 µM; in test [5], 0.916 µM; in [6] it was 1.37 µM. The GI50 in [7] was 0.364 µM; in test [8], 0.408 µM; in test [9] it was 0.268 µM; in [10], 1.42 µM. The TGI in test [1] came out at 7.55 µM; in [2], 3.04 µM; in test [3], 1.28 µM; in [4], 0.705 µM; in test [5], 5.69 µM; in [6] it was 3.75 µM. Besides, the TGI came to 1.41 µM in [8], 0.774 µM in test [9] and 3.98 µM in [10].

For the compound `CCC1C[N+]2=C(c3cc(OC)c(OC)cc3CC2)c2c1cc1n2CCc2cc(OC)c(OC)cc2-1` (centres undefined), the GI50 in test [1] was 7.49 µM; in test [2], 1.25 µM; in test [3], 2.25 µM; in [4], 1.5 µM; in test [5] it was 6.84 µM; in [6], 3.49 µM. Besides, the GI50 in test [7] was 1.95 µM; in test [8], 20.6 µM; in test [9], 3.23 µM; in test [10], 1.93 µM. Also, the TGI in test [1] is 21.2 µM; in test [2], 13.3 µM; in test [3] it was 14.5 µM; in test [4], 10.9 µM; in test [5], 21.1 µM; in [6] it was 31.8 µM. Further, the TGI in test [7] amounted to 20.8 µM; in [8], 65.7 µM; in test [9], 20.3 µM; in [10], 6.03 µM.

Consider `C=C(C)[C@@H]1CC[C@]2(COC(=O)c3ccccc3C(=O)O)CC[C@]3(C)[C@H](CC[C@@H]4[C@@]5(C)CC[C@H](OC(=O)c6ccccc6C(=O)O)C(C)(C)[C@@H]5CC[C@]43C)[C@@H]12`, for which the GI50 is 32 µM in [1]; more than 100 µM in [2]; 23.1 µM in [3]; 8.47 µM in test [4]; 24.8 µM in test [5]; 26.6 µM in test [6]. The GI50 in test [7] is 31.7 µM; in test [8], 18.6 µM; in [9] it was 46 µM; in test [10], 16.6 µM. The TGI in test [1] was more than 100 µM; in test [2], more than 100 µM; in test [3], 77.7 µM; in test [4], more than 100 µM; in [5], 63.3 µM; in test [6] it was more than 100 µM. The TGI in [7] was more than 100 µM; in test [8], 85.2 µM; in test [9], more than 100 µM; in test [10], more than 100 µM.

For `CCOC(=O)CC1C(CNC(=O)NC)OC(n2cnc3c(NC(=O)Nc4ccccc4)ncnc32)C1O[Si](C)(C)C(C)(C)C` (centres undefined), the GI50 was more than 100 µM in [1]; 3.42 µM in test [2]; 4.69 µM in [3]; 3.95 µM in test [4]; 12.4 µM in test [5]; 6.53 µM in [6]. The GI50 is 3.59 µM in test [7], 29.7 µM in test [8], 4.2 µM in [9] and more than 100 µM in test [10]. For the same compound, the TGI in test [1] was more than 100 µM; in test [2], 45.1 µM; in test [3] it was 20.9 µM; in test [4], 20.9 µM; in test [5], 40.5 µM; in test [6], 27 µM. The TGI is 32.9 µM in test [7], more than 100 µM in test [8], more than 100 µM in test [9] and more than 100 µM in test [10].

As to `O=C(Oc1c(Cl)c(Cl)c(Cl)c(Cl)c1Cl)C1CCCN1C(=O)OCc1ccccc1` (centres undefined), the GI50 in test [1] was 3.82 µM; in test [2], 3.16 µM; in [3] it was 3.34 µM; in test [4] it was 3.62 µM; in test [5] it was 3.13 µM; in [6] it was 4 µM. Also, the GI50 in [7] is 3.43 µM; in test [8] it was 2.8 µM; in [9] it was 3.71 µM; in [10] it was 3.24 µM. For the same compound, the TGI turned out to be 21.7 µM in test [1]; 11.9 µM in [2]; 12.6 µM in [3]; 13 µM in test [4]; 8.85 µM in [5]; 15.6 µM in test [6]. The TGI is 19.3 µM in test [7], 8.52 µM in test [8], 12 µM in test [9] and 12.6 µM in [10].
